Assay results reported in article PMC11272821, “Mechanistic safety assessment via multi-omic characterisation of systemic pathway perturbations following in vivo MAT2A inhibition” (Archives of Toxicology, 2024).

Test system: rat liver proteome
Assay: Liver label-free quantitative proteomics
Assay type: in vivo
Experimental: Liver tissue were homogenized in PreOmics iST buffer (PreOmics) using a bead ruptor. […] Peptides were purified using PreOmics iST cartridges and vacuum-centrifuged to dryness. Peptides were subsequently reconstituted in 2 vol% ACN and 0.1 vol% formic acid for single-run LC–MS analysis. Peptides were analyzed using a Thermo EASY-nLC1200 coupled online to an Exploris 480 Mass Spectrometer equipped with a Nanospray Flex Ion Source integrated with a column oven (PRSO-V1, Sonation) and a FAIMS unit. Peptides were separated using a nonlinear gradient and analyzed by acquiring spectra through Data Independent Acquisition (DIA). Data was analyzed using Spectronaut V15.7.2 (Biognosys AG) direct DIA analysis using an isoform Rat database (UniProt downloaded 22.02.2021) consisting of 9,746 protein entries utilizing the Pulsar search engine. Analysis settings were maintained to factory settings and identification was set to 1% false discovery rate (FDR) for precursor and protein level. Additional information is provided in Supplementary M&M.
Data analysis was performed using R Statistical Software (version 4.3.0). Proteomics, transcriptomics and metabolomics expression changes were visualised using heatmaps showing log2 fold change relative to control. In the heatmaps missing values were highlighted in grey.
Proteomics Analysis. Liver tissue was placed in vials containing 1.4 mm zirconia beads and taken up in 500 µL of PreOmics iST buffer (PreOmics). In a cold room set to 4 °C, tissues were homogenized utilizing a bead Ruptor 12 by shaking for 30 seconds for a total of 5 times using ‘high’ setting. Lysate was normalized using BCA assay (Thermo Fisher Scientific), and subsequently incubated at 95 °C for 10 min for reduction, and alkylation of proteins. A total of 50 μg from each sample was subjected to enzymatic cleavage for 3 h by adding equal amounts of endoproteinase Lys-C and trypsin (ThermoFisher Scientific, # A40009) in a 1:50 (wt/wt) enzyme:protein ratio. De-salting and purification were performed according to the PreOmics iST protocol on a styrene divinylbenzene reversed-phase sulfonate sorbent. Purified peptides were vacuum-centrifuged to dryness and reconstituted in double-distilled water with 2 vol% ACN and 0.1 vol% formic acid (FA) for single-run LC-MS analysis.
Peptides were loaded onto a ReproSil-Pur 120 C18AQ 1.9 µm in-house packed to a 5 µm tip 75u ID × 360u × 50 cm column using Thermo EASY-nLC 1200 coupled online to an Exploris 480 Mass Spectrometer equipped with a Nanospray Flex Ion Source integrated with a column oven (PRSO-V1, Sonation) maintained at 50 °C. Peptides were separated using a nonlinear gradient: Mobile phase A was 0.1 vol% FA and 3 vol% acetonitrile (ACN) in water, Mobile phase B was 90 vol% ACN and 0.1 vol % FA. The gradient was operated at 250 nL/min flowing 3 vol% B for 3 min, 3 to 5 vol% B over 3 min, 5 to 17 vol % B over 120 min, 17 to 24 vol % B over 26 min, 24 to 30 vol% B over 14 min, 30 to 85 vol% B over 3 min.

Cn1cc2cc(-c3cc4[nH]nc(C5CC5)c4n(-c4ccc(OC(F)F)cc4)c3=O)ccc2n1 [AZ’9567]
Cfdp1 Log2FC (liver protein, 30mg/kg): 0.5 | Chid1 Log2FC (liver protein, 30mg/kg): 1.0 | Comt Log2FC (liver protein, 30mg/kg): -0.6 | Coq4 Log2FC (liver protein, 30mg/kg): 0.7 | Csad Log2FC (liver protein, 30mg/kg): -1.1 | Ctbs Log2FC (liver protein, 30mg/kg): -0.7 | Cyp2c23 Log2FC (liver protein, 30mg/kg): -0.9 | Cyp4a2 Log2FC (liver protein, 30mg/kg): 1.3 | Cyp4a10 Log2FC (liver protein, 30mg/kg): 1.1 | Dbnl Log2FC (liver protein, 30mg/kg): 0.7 | Dcakd Log2FC (liver protein, 30mg/kg): 1.3 | Dkc1 Log2FC (liver protein, 30mg/kg): 0.6 | Dmgdh Log2FC (liver protein, 30mg/kg): 0.7 | Dohh Log2FC (liver protein, 30mg/kg): 0.7 | Eif4ebp1 Log2FC (liver protein, 30mg/kg): 1.0 | Enpep Log2FC (liver protein, 30mg/kg): -1.2 | Fabp4 Log2FC (liver protein, 30mg/kg): 1.1 | Fabp5 Log2FC (liver protein, 30mg/kg): -1.0 | Fads1 Log2FC (liver protein, 30mg/kg): -1.6 | Fasn Log2FC (liver protein, 30mg/kg): -0.7 | Fdft1 Log2FC (liver protein, 30mg/kg): 1.1 | Fdps Log2FC (liver protein, 30mg/kg): 0.5 | Fgr Log2FC (liver protein, 30mg/kg): 1.8 | Gimd1 Log2FC (liver protein, 30mg/kg): -0.7 | Gmpr Log2FC (liver protein, 30mg/kg): 0.8 | Gnl3 Log2FC (liver protein, 30mg/kg): 0.8 | Gnmt Log2FC (liver protein, 30mg/kg): 1.7 | Gpcpd1 Log2FC (liver protein, 30mg/kg): 1.8 | Gstm1 Log2FC (liver protein, 30mg/kg): -0.8 | Gstm2 Log2FC (liver protein, 30mg/kg): -0.9 | Gtpbp4 Log2FC (liver protein, 30mg/kg): 0.8 | Hexa Log2FC (liver protein, 30mg/kg): -0.6 | Hfe Log2FC (liver protein, 30mg/kg): 1.0 | Hmgcs1 Log2FC (liver protein, 30mg/kg): 1.6 | Hmgn2 Log2FC (liver protein, 30mg/kg): 1.2 | Hnrnpa1 Log2FC (liver protein, 30mg/kg): 1.5 | Hsd17b7 Log2FC (liver protein, 30mg/kg): 0.6 | Idi1 Log2FC (liver protein, 30mg/kg): 1.3 | Igf1 Log2FC (liver protein, 30mg/kg): -1.6 | Kalrn Log2FC (liver protein, 30mg/kg): 0.6 | Lipa Log2FC (liver protein, 30mg/kg): -0.5 | Lrrc8d Log2FC (liver protein, 30mg/kg): 0.8 | Lyrm2 Log2FC (liver protein, 30mg/kg): 0.7 | Mat1a Log2FC (liver protein, 30mg/kg): 0.6 | Mat2a Log2FC (liver protein, 30mg/kg): 0.8 | Mat2b Log2FC (liver protein, 30mg/kg): -2.7 | Me1 Log2FC (liver protein, 30mg/kg): -1.0 | Mettl7b Log2FC (liver protein, 30mg/kg): -1.0 | Mettl26 Log2FC (liver protein, 30mg/kg): -1.8 | Minpp1 Log2FC (liver protein, 30mg/kg): 1.5 | Mospd1 Log2FC (liver protein, 30mg/kg): -0.7 | Mt1 Log2FC (liver protein, 30mg/kg): 6.5 | Mtr Log2FC (liver protein, 30mg/kg): 1.1 | Mybbp1a Log2FC (liver protein, 30mg/kg): 1.0 | Ncl Log2FC (liver protein, 30mg/kg): 0.8 | Nob1 Log2FC (liver protein, 30mg/kg): 0.9 | Orm1 Log2FC (liver protein, 30mg/kg): 1.5 | Paics Log2FC (liver protein, 30mg/kg): 0.7 | Pcyt1a Log2FC (liver protein, 30mg/kg): 0.8 | Pklr.1 Log2FC (liver protein, 30mg/kg): -1.1 | Prmt1 Log2FC (liver protein, 30mg/kg): 0.7 | Pspc1 Log2FC (liver protein, 30mg/kg): 0.7 | Ptprs Log2FC (liver protein, 30mg/kg): -1.0 | Pum3 Log2FC (liver protein, 30mg/kg): 1.0 | Rbm3 Log2FC (liver protein, 30mg/kg): 1.0 | Rgn Log2FC (liver protein, 30mg/kg): -0.7 | Rmdn1 Log2FC (liver protein, 30mg/kg): 0.8 | S1pr1 Log2FC (liver protein, 30mg/kg): -0.8 | Scd1 Log2FC (liver protein, 30mg/kg): -3.2 | Sh3glb1 Log2FC (liver protein, 30mg/kg): 0.8 | Sirt2 Log2FC (liver protein, 30mg/kg): 0.5 | Slc6a13 Log2FC (liver protein, 30mg/kg): -1.0 | Slc22a8 Log2FC (liver protein, 30mg/kg): -1.4 | Slc39a4 Log2FC (liver protein, 30mg/kg): -2.8 | Sqle Log2FC (liver protein, 30mg/kg): 0.8 | Srebf1 Log2FC (liver protein, 30mg/kg): 1.3 | Sts Log2FC (liver protein, 30mg/kg): -0.6 | Tat Log2FC (liver protein, 30mg/kg): -1.6 | Tceanc2 Log2FC (liver protein, 30mg/kg): 1.3 | Thg1l Log2FC (liver protein, 30mg/kg): 0.6 | Tpmt Log2FC (liver protein, 30mg/kg): -1.4 | Tspo Log2FC (liver protein, 30mg/kg): 1.9 | Txnrd2 Log2FC (liver protein, 30mg/kg): -0.6 | Ube2f Log2FC (liver protein, 30mg/kg): 0.6 | Ugt2b1 Log2FC (liver protein, 30mg/kg): -1.1 | Wdr45 Log2FC (liver protein, 30mg/kg): -1.1 | Ythdc1 Log2FC (liver protein, 30mg/kg): 0.5 | mvd Log2FC (liver protein, 30mg/kg): 0.9 | differentially expressed liver proteins vs vehicle control (middle dose (10 mg/kg BID), adjusted p < 0.05 and Log2 FC > 0.5 or < −0.5): 467
